The values below come from ChEMBL document CHEMBL6087482, “Discovery of INCB159020, an Orally Bioavailable KRAS G12D Inhibitor” (J Med Chem, 2025).

pIC50: −log10 of the molar value.

Data set [1] can be described thus: Apparent permeability across apical to basolateral side in human Caco-2 cells at 50 uM incubated for 120 mins by LC-MS analysis. Format: ADME, cell-based. (Caco-2 cells form a polarised layer with tight junctions and transporters.)
The nature of data set [2]: Intrinsic clearance in human liver microsomes at 1 uM measured upto 30 mins in presence of NADPH by LC/MS analysis. The data set is classed as ADME, Microsome. To be noted: read-out: CLH (converted).
Data set [3] is described as follows: Cmax in Sprague-Dawley rat at 3 mg/kg, po or 1 mg/kg, iv measured after 24 hrs by LC-MS/MS analysis. Format: ADME, organism-based. To be noted: in vivo.
A short description of data set [4]: AUC in Sprague-Dawley rat at 3 mg/kg, po or 1 mg/kg, iv measured after 24 hrs by LC-MS/MS analysis. The note with it: in vivo. Format: ADME, organism-based.
A short description of data set [5]: Oral bioavailability in Sprague-Dawley rat at 3 mg/kg measured after 24 hrs by LC-MS/MS analysis. Format: ADME, organism-based. The note with it: in vivo.
The nature of data set [6]: Clearance in Sprague-Dawley rat assessed as hepatic blood flow at 3 mg/kg, po or 1 mg/kg, iv measured after 24 hrs by LC-MS/MS analysis. Format: ADME, organism-based. To be noted: in vivo.
A short description of data set [7]: Half-life in Sprague-Dawley rat at 3 mg/kg, po or 1 mg/kg, iv measured after 24 hrs by LC-MS/MS analysis. To be noted: in vivo. Format: ADME, organism-based.
The nature of data set [8]: Cmax in Non human primate at […], po or 1 mg/kg, iv. The data set is classed as ADME, organism-based. To be noted: primates, in vivo, dose 1.5 mg/kg.
Data set [9] is described as follows: AUC in Non human primate at […], po or 1 mg/kg, iv. Format: ADME, organism-based. To be noted: primates, in vivo, dose 1.5 mg/kg.
A short description of data set [10]: Oral bioavailability in Non human primate at […]. The data set is classed as ADME, organism-based. To be noted: primates, in vivo, dose 1.5 mg/kg.
The test system of the next data set is Primates. Description: Clearance in Non human primate assessed as hepatic blood flow at […], po or 1 mg/kg, iv. The data set is classed as ADME, organism-based. The note with it: in vivo, dose 1.5 mg/kg.
A short description of data set [11]: Half-life in Non human primate at […], po or 1 mg/kg, iv. To be noted: primates, in vivo, dose 1.5 mg/kg. The data set is classed as ADME, organism-based.
Data set [12] is described as follows: Solubility of compound in SGF. The data set is classed as physicochemical.
Data set [13] in a line: Solubility of compound in FASSIF. The data set is classed as physicochemical.
The target of another data set is Cytochrome P450 3A4 (Homo sapiens, UniProt P08684). Description: Inhibition of CYP3A4 (unknown origin). Format: ADME.
Sequence of Cytochrome P450 3A4 (P08684 whole entry): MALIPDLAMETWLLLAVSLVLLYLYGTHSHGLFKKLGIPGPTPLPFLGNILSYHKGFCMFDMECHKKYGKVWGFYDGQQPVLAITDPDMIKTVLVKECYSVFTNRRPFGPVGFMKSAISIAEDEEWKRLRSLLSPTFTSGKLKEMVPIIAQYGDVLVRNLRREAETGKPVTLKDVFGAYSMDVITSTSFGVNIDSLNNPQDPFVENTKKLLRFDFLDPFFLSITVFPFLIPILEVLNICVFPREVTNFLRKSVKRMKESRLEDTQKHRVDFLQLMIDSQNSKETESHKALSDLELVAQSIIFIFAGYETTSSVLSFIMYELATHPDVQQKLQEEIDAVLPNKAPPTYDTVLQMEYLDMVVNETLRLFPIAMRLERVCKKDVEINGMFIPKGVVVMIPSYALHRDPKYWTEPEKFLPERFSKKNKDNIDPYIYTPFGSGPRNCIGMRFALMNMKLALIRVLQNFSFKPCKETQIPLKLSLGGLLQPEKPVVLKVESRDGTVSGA
Another data set addresses Cytochrome P450 2D6 (Homo sapiens, UniProt P10635). Description: Inhibition of CYP2D6 (unknown origin). Format: ADME.
Another data set addresses Cytochrome P450 2C9 (Homo sapiens, UniProt P11712). Description: Inhibition of CYP2C9 (unknown origin). Format: ADME.
A further data set addresses T1, Cytochrome P450 2B6 (Homo sapiens, UniProt P20813).
T1 sequence (P20813 whole entry): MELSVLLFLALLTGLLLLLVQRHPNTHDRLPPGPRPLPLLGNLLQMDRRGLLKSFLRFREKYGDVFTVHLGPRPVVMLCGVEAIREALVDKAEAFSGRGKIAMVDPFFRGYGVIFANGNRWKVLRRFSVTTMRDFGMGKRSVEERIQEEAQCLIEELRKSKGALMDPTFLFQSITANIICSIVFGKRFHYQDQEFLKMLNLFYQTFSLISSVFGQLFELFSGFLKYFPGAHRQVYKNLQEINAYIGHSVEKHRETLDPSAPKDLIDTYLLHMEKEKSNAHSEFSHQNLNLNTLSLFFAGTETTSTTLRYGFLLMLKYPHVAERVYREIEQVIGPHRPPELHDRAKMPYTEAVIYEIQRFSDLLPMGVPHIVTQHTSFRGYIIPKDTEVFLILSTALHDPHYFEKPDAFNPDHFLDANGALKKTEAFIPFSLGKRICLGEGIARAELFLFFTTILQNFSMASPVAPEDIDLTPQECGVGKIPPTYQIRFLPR
Description: Inhibition of CYP2B6 (unknown origin). The data set is classed as ADME.

The target of a further data set is T2, Cytochrome P450 1A2 (Homo sapiens, UniProt P05177).
T2 sequence (P05177 whole entry): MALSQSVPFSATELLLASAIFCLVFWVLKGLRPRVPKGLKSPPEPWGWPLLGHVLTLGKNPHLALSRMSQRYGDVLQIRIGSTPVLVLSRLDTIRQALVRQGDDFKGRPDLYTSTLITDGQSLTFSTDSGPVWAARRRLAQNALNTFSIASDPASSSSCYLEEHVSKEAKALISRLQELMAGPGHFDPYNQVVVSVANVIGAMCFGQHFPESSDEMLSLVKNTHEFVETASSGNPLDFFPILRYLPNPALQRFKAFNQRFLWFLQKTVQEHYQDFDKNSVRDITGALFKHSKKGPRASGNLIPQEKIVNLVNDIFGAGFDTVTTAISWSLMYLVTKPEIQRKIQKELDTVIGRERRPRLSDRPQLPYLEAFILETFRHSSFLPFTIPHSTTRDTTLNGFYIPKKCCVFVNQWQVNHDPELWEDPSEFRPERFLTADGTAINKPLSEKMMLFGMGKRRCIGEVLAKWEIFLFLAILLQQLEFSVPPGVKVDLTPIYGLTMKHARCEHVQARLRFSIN
Description: Inhibition of CYP1A2 (unknown origin). The data set is classed as ADME.

Data set [14] deals with Voltage-gated inwardly rectifying potassium channel KCNH2 (Homo sapiens, UniProt Q12809). Description: Inhibition of human ERG. Format: toxicity.
Sequence of Voltage-gated inwardly rectifying potassium channel KCNH2 (Q12809 whole entry): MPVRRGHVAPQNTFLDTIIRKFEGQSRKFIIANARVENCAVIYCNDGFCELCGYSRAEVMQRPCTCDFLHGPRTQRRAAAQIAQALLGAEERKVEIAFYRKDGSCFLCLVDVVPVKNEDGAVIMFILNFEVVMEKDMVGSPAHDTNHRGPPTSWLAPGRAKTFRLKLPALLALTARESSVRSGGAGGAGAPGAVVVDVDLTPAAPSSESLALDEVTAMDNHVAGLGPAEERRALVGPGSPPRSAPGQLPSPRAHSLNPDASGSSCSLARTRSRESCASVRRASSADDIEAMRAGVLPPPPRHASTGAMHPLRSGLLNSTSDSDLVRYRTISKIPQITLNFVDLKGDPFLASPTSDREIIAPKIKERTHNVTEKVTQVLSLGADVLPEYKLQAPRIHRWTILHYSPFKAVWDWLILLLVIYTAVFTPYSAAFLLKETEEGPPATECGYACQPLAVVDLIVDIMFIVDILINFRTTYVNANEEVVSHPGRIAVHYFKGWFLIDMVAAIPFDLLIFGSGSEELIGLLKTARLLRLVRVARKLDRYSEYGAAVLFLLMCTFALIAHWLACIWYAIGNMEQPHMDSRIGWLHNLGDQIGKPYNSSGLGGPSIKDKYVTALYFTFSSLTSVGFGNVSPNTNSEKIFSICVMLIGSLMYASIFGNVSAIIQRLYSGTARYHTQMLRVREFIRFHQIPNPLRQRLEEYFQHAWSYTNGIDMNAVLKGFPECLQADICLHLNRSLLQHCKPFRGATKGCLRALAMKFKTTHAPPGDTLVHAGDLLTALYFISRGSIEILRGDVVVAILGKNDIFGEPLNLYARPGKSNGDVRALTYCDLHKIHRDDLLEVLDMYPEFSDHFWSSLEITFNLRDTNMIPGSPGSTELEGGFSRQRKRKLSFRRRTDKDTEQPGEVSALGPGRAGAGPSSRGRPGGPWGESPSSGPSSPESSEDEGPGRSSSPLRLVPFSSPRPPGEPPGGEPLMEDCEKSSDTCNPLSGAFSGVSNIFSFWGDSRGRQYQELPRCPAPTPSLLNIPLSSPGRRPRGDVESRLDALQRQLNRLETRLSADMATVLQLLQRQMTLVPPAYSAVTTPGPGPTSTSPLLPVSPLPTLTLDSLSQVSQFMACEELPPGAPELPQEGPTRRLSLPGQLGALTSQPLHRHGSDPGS
The next data set deals with Cytochrome P450. Kind of data set: Time dependent inhibition of CYP (unknown origin). Format: ADME, protein assay. To be noted: human.
The target of data set [15] is High affinity nerve growth factor receptor (Homo sapiens, UniProt P04629). Kind of data set: Binding affinity to TRKA (unknown origin) in presence of ATP.
Sequence of High affinity nerve growth factor receptor (P04629 whole entry): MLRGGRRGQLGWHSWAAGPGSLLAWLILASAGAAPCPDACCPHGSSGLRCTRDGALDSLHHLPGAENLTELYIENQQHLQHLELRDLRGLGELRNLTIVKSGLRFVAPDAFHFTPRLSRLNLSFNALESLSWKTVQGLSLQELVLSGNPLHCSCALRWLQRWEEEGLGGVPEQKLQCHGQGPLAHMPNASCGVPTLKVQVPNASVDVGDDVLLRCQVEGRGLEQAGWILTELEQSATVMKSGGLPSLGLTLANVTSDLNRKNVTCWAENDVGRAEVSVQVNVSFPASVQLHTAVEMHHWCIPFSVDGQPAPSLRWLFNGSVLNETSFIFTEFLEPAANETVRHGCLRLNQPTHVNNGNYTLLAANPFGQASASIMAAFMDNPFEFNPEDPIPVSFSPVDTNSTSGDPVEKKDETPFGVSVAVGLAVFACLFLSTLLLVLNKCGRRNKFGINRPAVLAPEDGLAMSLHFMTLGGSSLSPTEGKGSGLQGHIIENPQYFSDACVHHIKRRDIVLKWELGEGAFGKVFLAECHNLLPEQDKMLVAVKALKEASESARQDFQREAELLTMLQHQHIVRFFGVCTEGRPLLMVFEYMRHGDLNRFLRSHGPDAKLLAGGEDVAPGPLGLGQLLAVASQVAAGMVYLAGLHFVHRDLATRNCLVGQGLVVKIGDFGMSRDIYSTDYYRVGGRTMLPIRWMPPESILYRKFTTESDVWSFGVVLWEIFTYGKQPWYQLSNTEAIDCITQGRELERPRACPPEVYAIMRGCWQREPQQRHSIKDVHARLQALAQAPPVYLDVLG
The target of a further data set is Aurora kinase B (Homo sapiens, UniProt Q96GD4). Description: Binding affinity to Aurora B (unknown origin) in presence of ATP.
Sequence of Aurora kinase B (Q96GD4 whole entry): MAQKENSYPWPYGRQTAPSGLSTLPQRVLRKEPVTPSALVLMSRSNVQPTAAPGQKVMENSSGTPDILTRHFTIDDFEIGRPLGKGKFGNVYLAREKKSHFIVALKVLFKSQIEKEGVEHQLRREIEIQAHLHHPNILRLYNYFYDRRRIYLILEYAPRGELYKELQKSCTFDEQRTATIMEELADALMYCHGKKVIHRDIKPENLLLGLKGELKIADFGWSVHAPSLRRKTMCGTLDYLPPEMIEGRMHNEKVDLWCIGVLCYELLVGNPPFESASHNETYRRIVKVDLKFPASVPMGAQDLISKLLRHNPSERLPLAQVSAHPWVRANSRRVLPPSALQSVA
Data set [16] in a line: Drug concentration in mouse plasma xenografted with HPAC cells at 100 mg/kg, po measured after 24 hrs. The data set is classed as ADME, organism-based.
A short description of data set [17]: Drug concentration in mouse plasma xenografted with HPAC cells at 300 mg/kg, po measured after 24 hrs. The data set is classed as ADME, organism-based.
Data set [18] is described as follows: Toxicity in mouse xenografted with human HPAC cells assessed as tolerance at 30 to 300 mg/kg, po measured after 24 hrs. Format: organism-based. The note with it: in vivo, dose 30-300 mg/kg. On the technique in general: In xenograft studies the graft and the host belong to different species.
Data set [19] is described as follows: In vivo inhibition of ERK phosphorylation in tumor of mouse xenografted with HPAC cells at 6 mg/kg, po measured after 4 hrs relative to control. Format: functional.

Sequence of Cytochrome P450 2D6 (P10635 whole entry): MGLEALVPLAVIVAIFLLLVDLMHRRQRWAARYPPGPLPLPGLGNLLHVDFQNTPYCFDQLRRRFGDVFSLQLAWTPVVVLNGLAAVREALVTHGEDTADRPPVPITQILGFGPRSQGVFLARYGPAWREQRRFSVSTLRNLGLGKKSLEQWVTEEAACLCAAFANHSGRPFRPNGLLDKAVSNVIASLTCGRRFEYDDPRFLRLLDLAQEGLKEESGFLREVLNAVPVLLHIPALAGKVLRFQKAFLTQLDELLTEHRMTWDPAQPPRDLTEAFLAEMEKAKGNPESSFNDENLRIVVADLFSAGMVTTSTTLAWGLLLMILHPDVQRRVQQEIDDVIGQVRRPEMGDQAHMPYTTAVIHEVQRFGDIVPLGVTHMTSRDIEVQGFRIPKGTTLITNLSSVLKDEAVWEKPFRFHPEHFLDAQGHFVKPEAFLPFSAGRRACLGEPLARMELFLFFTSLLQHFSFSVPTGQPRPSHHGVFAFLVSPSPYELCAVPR
Sequence of Cytochrome P450 2C9 (P11712 whole entry): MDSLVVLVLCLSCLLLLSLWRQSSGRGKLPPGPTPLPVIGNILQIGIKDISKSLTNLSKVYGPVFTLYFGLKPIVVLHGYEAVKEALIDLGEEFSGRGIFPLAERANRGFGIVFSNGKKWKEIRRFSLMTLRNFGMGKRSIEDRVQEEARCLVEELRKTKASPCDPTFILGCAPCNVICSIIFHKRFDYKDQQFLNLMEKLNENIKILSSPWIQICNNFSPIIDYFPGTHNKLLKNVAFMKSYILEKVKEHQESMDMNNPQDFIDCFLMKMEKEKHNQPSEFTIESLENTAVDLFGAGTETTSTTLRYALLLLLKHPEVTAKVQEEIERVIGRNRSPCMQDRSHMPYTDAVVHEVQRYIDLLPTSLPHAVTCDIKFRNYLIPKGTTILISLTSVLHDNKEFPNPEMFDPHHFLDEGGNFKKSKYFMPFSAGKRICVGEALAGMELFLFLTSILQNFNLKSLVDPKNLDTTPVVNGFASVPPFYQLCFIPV

In general, Papp A→B refers to how fast a substance crosses the layer from the apical side. As usually defined, the Cmax is the highest concentration seen after dosing. By AUC is commonly meant the area under the concentration-time curve, a measure of exposure. A low value points to less exposure. The bioavailability is the share of a dose that reaches the circulation, judged against a reference dose that is usually intravenous. High values mean much systemic uptake, low ones little systemic uptake. The term half-life denotes how long it takes for the measured level to halve. Lower therefore signals fast loss. The solubility is the dissolved amount per volume that the medium holds. For orientation: pIC50 means −log10 of the IC50, conventionally taken in molar units. Take `Cc1cnc(-c2nc3c(F)c(-c4cccc(Cl)c4C)c(CCC#N)cc3c3c2cc([C@@H](C)N2CCOCC2=O)n3[C@H]2[C@H]3CN[C@@H]2C3)cn1`: the Papp A→B at 2 h, 50 µM in data set [1] was determined as 3.6 ×10⁻⁶ cm/s. Besides, the hepatic clearance at 1 µM in [2] was 16.7 mL/min/kg. Moreover, the Cmax came to 57 nM in [3] and 100 nM in [8]. Moreover, in data set [4], the area under the curve (AUC) at 24 h turned out to be 0.331 µM·h. For the same molecule, the bioavailability in data set [5] worked out at 27%; in data set [10] it was 42%. The QH is more than 100% in data set [6] and 37% with Primates. For the same molecule, the half-life in data set [7] is 3.8 h; in data set [11], 6.4 h. In [9], this molecule displayed an AUC of 0.95 µM·h. Moreover, the solubility is more than 900 µg/mL in data set [12] and more than 79 µg/mL in data set [13]. In addition, the pIC50 at Cytochrome P450 3A4 was 4.77; against Cytochrome P450 2D6 it was 5.14; on Cytochrome P450 2C9 it was less than 4.70; against Cytochrome P450 2B6, less than 4.70; on Cytochrome P450 1A2, less than 4.70; in data set [14] it was 4.95. Also, the pIC50 is 5.41 in [15] and 5.24 at Aurora kinase B. Further, the TDI entry in the data set with Cytochrome P450 is recorded as “Not_active”. Further, the concentration at 24 h in data set [16] is approximately 950 nM; in data set [17], approximately 8500 nM. Besides, in [18], the Activity result was “Non-toxic”.

The term inhibition in vivo denotes the share of the control response that was lost under treatment. A higher inhibition in vivo goes with a response far below the control. The molecule `CC(=O)Nc1cccc(-n2c(=O)n(C3CC3)c(=O)c3c(Nc4ccc(I)cc4F)n(C)c(=O)c(C)c32)c1` [TRAMETINIB] yielded an inhibition in vivo at 6 mg/kg in data set [19] of 99%.
